Experimental data taken from PMC12365235, “Molecular mechanisms of thiazide-like diuretics-mediated inhibition of the human Na-Cl cotransporter” (Nature Communications, 2025).
pIC50: −log10 of the molar value.

Columns and labels:
[1] = set-up: method as in PMID 354839; settings: chlorthalidone dose 2- to 4-fold over the currently recommended level; cited from earlier work
hNCC(N227A) = molecular target: T1, hNCC(N227A) (Homo sapiens, UniProt P55017, N227A); assay: 125I- uptake assay, hNCC(N227A) variant; assay type: cell-based; settings: for increase in IC50 relative to hNCC(WT) / pIC50: N227A substitution; for pIC50: iodide uptake
T1 construct: expressed in transfected cells
T1 sequence (P55017 1-1021 N227A): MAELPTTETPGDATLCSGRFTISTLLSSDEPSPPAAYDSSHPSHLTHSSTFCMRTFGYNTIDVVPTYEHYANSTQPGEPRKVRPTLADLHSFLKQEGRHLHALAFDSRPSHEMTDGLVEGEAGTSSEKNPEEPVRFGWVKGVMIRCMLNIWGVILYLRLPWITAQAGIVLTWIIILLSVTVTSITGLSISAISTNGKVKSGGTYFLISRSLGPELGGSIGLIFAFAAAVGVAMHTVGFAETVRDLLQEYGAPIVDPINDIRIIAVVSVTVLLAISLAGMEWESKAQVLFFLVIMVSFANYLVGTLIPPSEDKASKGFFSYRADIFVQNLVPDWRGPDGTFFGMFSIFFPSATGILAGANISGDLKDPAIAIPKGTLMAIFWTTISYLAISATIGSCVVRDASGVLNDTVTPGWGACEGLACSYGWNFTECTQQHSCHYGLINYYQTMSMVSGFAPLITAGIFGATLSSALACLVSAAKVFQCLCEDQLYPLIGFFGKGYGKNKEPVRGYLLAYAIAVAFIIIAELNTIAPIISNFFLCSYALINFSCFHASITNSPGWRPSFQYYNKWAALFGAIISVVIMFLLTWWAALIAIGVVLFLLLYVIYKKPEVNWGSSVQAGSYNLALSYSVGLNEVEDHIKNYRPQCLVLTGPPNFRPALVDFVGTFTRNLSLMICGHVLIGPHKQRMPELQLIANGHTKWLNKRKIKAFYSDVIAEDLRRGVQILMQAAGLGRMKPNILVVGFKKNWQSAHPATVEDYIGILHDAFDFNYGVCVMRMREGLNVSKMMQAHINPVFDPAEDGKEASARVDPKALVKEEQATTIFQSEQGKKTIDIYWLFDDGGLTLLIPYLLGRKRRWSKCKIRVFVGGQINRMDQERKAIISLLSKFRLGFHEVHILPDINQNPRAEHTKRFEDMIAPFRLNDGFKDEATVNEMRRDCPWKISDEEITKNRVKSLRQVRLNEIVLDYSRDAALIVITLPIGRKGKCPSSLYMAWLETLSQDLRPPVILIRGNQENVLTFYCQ
Method: HEK293S cell lines, cultured in 293 Freestyle medium (Life Technologies; plus 10% fetal bovine serum), stably expressing hNCC and its variants were generated following published protocols. Cells were transfected using Lipofectamine 3000 (Invitrogen) with a pSBbi-RP-based plasmid containing hNCC or its variants and the SB100X vector. Puromycin (2 μg/mL; Gemini Bio-Products) was used for selection of stable cell lines.
To prepare for the uptake experiment, cells were plated at 0.5 × 10^6 cells/well in 24-well plates one day in advance. To activate NCC, cells were treated with a chloride-free hypotonic solution composed of 67.5 mM sodium-, 2.5 mM potassium-, 0.25 mM magnesium-, and 0.25 mM calcium-gluconate, as well as 7.5 mM HEPES pH 7.4 (buffered using Tris) at 37 °C for 10 min[72]. After the activation step, the experiments were carried out at room temperature. Ten minutes before the start of ^125I^− uptake, 70 μM Bumetanide (Thermo Scientific Chemicals) and 100 μM 4,4′-diisothiocyanatostilbene-2,2′-disulfonic acid (DIDS; Sigma) were added to suppress background iodide uptake activity. Indicated thiazide diuretics were also added to the indicated concentrations 10 min before the start of ^125I^− uptake. The original buffer was switched to an uptake buffer composed of 135 mM Na-gluconate, 5 mM K-gluconate, 1 mM Mg-gluconate, 1 mM Ca-gluconate, 70 μM bumetanide, 100 μM DIDS, 1 mM NaI, 0.25 μCi/ml Na^125I (American Radiolabeled Chemicals, Inc.), and 15 mM HEPES pH 7.4 (buffered using Tris), in the presence or absence of thiazide diuretics to initiate ^125I^− uptake. The ^125I^− uptake process lasted 1 h and was stopped by two rapid washes using ice-cold 110 mM MgCl2. Cells lysed using 1% sodium dodecyl sulfate (SDS) were analyzed by scintillation counting.
To calculate the fold change of the half-maximal inhibitory concentration (IC50) between hNCC(WT) and different hNCC variants, individual dose-response curves were normalized first using the smallest mean and the value of the lowest concentration as 0% and 100%, respectively. The normalized data were then fitted using the “EC50 shift” nonlinear regression in GraphPad Prism 10 with the shared EC50Control assigned to be the IC50 of hNCC(WT). The following constraints were used in the EC50 shift analysis. The EC50Control was set to be shared across all curves under analysis and constrained to be greater than 0. The EC50Ratio was constrained to be greater than 0. The bottom, top, and HillSlope were constrained to be 0, 100, and −1, respectively. For Fig. 1f, g and Supplementary Fig. 2d, GraphPad Prism 10 was used to perform curve fitting and IC50 calculation for normalized data using y = 100/(1 + (x/IC50)).

SMILES	serum glucose and uric acid [1]	increase in IC50 relative to hNCC(WT) (hNCC(N227A))	pIC50 (hNCC(N227A))	effect of N227A substitution on potency relative to its effect on polythiazide (hNCC(N227A); N227A, polythiazide sensitivities from ref 36)
NS(=O)(=O)c1cc(C2(O)NC(=O)c3ccccc32)ccc1Cl (stereo not drawn) [chlorthalidone]	elevated levels of serum glucose and uric acid	> 1000 fold	4.23	
CC1Cc2ccccc2N1NC(=O)c1ccc(Cl)c(S(N)(=O)=O)c1 (stereo not drawn) [indapamide]		over 10,000 fold	3.21	over 50 fold
